In PMC8791477, “Evaluation of SARS-CoV-2 entry, inflammation and new therapeutics in human lung tissue cells” (PLoS Pathogens, 2022):
Where a name gives a salt, the structure may show the parent alone.

Assays:
VeroE6 cells = conditions: read-out: CC50 Vero E6; absence of virus
HLT cells = conditions: read-out: CC50 HLT; absence of virus
in vitro [1] = conditions: human, CC50 HLT
in vitro [2] = conditions: African green monkey

CCCCCCCCCC(=O)OCC(O)CO (centres unmarked) [Monocaprin]
CC50 (VeroE6 cells): > 100 µM
CC50 (HLT cells): > 100 µM

Cc1cc(O)c2c(=O)c3c(O)cc(O)c4c5c(O)cc(O)c6c(=O)c7c(O)cc(C)c8c1c2c(c34)c(c78)c65 [Hypericin]
CC50 (in vitro [1]; absence of virus): 0.14 µM
CC50 (in vitro [2]; CC50 Vero E6, absence of virus): 4.8 µM

CCCCCCCCCCCC(=O)O [Lauric acid]
CC50 (VeroE6 cells): > 100 µM
CC50 (HLT cells): > 100 µM

NC(=O)[C@@H]1CCCN1C(=O)[C@H](Cc1c[nH]cn1)NC(=O)[C@@H]1CCC(=O)N1 [Protilerin]
CC50 (VeroE6 cells): > 100 µM
CC50 (HLT cells): > 100 µM

Oc1ccc(CC2NCCc3cc(O)c(O)cc32)cc1 (centres unmarked) [Higenamine, Higenamine hydrochloride]
CC50 (in vitro [1]; absence of virus): > 100 µM
CC50 (in vitro [2]; CC50 Vero E6, absence of virus): > 100 µM

Cc1ccnc(NS(=O)(=O)c2ccc(N)cc2)n1 [Sulfamerazine]
CC50 (in vitro [1]; absence of virus): > 100 µM
CC50 (in vitro [2]; CC50 Vero E6, absence of virus): > 100 µM

CC1(C)Cc2c(-c3ccccc3)c(-c3ccc(Cl)cc3)c(CC(=O)O)n2C1 [Licofelone]
CC50 (in vitro [1]; absence of virus): ~53.6 µM
CC50 (in vitro [2]; CC50 Vero E6, absence of virus): > 100 µM

C[C@]1(Cn2ccnn2)[C@H](C(=O)O)N2C(=O)C[C@H]2S1(=O)=O [Tazobactam]
CC50 (in vitro [1]; absence of virus): > 100 µM
CC50 (in vitro [2]; CC50 Vero E6, absence of virus): > 100 µM

CC1=C(CC(=O)O)c2cc(F)ccc2/C1=C\c1ccc([S+](C)[O-])cc1 (centres unmarked) [Sulindac]
CC50 (in vitro [1]; absence of virus): > 100 µM
CC50 (in vitro [2]; CC50 Vero E6, absence of virus): > 100 µM

N[C@@H](CC(=O)N1CCn2c(nnc2C(F)(F)F)C1)Cc1cc(F)c(F)cc1F [Sitagliptin]
CC50 (in vitro [1]; absence of virus): > 100 µM
CC50 (in vitro [2]; CC50 Vero E6, absence of virus): > 100 µM

CN(C)C(=N)N=C(N)N [Metformin]
CC50 (in vitro [1]; absence of virus): > 100 µM
CC50 (in vitro [2]; CC50 Vero E6, absence of virus): > 100 µM

[H]/N=C(/N)N/C(=N/[H])NCCc1ccccc1 [Phenformin]
CC50 (in vitro [1]; absence of virus): > 100 µM
CC50 (in vitro [2]; CC50 Vero E6, absence of virus): > 100 µM

Cc1cccn2c(=O)c(-c3nnn[nH]3)cnc12 [Pemirolast, Pemirolast potassium]
CC50 (in vitro [1]; absence of virus): > 100 µM
CC50 (in vitro [2]; CC50 Vero E6, absence of virus): > 100 µM

O=c1cc(-c2ccc(O)c(O)c2)oc2cc(O)cc(O)c12 [Luteolin]
CC50 (in vitro [1]; absence of virus): > 100 µM
CC50 (in vitro [2]; CC50 Vero E6, absence of virus): > 100 µM

O=C1CN(/N=C/c2ccc([N+](=O)[O-])o2)C(=O)N1 [Nitrofurantoin]
CC50 (in vitro [1]): > 100 µM
CC50 (in vitro [2]; CC50 Vero E6): > 100 µM

CC(C)[C@H](N)C(=O)OCCOCn1cnc2c(=O)[nH]c(N)nc21 [Valaciclovir]
CC50 (in vitro [1]; absence of virus): > 100 µM
CC50 (in vitro [2]; CC50 Vero E6, absence of virus): > 100 µM

C[C@H](O)[C@H](O)[C@H]1CNc2nc(N)[nH]c(=O)c2N1 [Tetrahydrobiopterin, Tetrahydrobiopterin dihydrochloride]
CC50 (in vitro [1]; absence of virus): > 100 µM
CC50 (in vitro [2]; CC50 Vero E6, absence of virus): > 100 µM

CC1(C)[C@@H](O[C@H]2O[C@H](C(=O)O)[C@@H](O)[C@H](O)[C@H]2O[C@@H]2O[C@H](C(=O)O)[C@@H](O)[C@H](O)[C@H]2O)CC[C@]2(C)[C@H]3C(=O)C=C4[C@@H]5C[C@@](C)(C(=O)O)CC[C@]5(C)CC[C@@]4(C)[C@]3(C)CC[C@@H]12 [Glycyrrhizin]
CC50 (in vitro [1]; absence of virus): > 100 µM
CC50 (in vitro [2]; CC50 Vero E6, absence of virus): > 100 µM

CCCCCCCCCCCC(=O)OCC(O)CO (centres unmarked) [Monolaurin]
CC50 (VeroE6 cells): > 100 µM
CC50 (HLT cells): > 100 µM

O=c1c(O)c(-c2ccc(O)c(O)c2)oc2cc(O)cc(O)c12 [Quercetin]
CC50 (in vitro [1]; absence of virus): > 100 µM
CC50 (in vitro [2]; CC50 Vero E6, absence of virus): > 100 µM

CCCCCCCCCCCCOS(=O)(=O)[O-].[Na+] [SLS, Sodium lauryl sulfate]
CC50 (VeroE6 cells): 87 µM
CC50 (HLT cells): ~83.2 µM

N#C[C@@H]1CCCN1C(=O)CNC12CC3CC(CC(O)(C3)C1)C2 [Vidagliptin, Vildagliptin]
CC50 (in vitro [1]; absence of virus): > 100 µM
CC50 (in vitro [2]; CC50 Vero E6, absence of virus): > 100 µM

O=C1C[C@@H](c2ccc(O)c(O)c2)Oc2cc(O)cc(O)c21 [Eriodictyol]
CC50 (in vitro [1]; absence of virus): > 100 µM
CC50 (in vitro [2]; CC50 Vero E6, absence of virus): > 100 µM

Cc1ccc(-c2cc(C(F)(F)F)nn2-c2ccc(S(N)(=O)=O)cc2)cc1 [Celecoxib]
CC50 (in vitro [1]; absence of virus): ~100 µM
CC50 (in vitro [2]; CC50 Vero E6, absence of virus): 13 µM

O=C1Nc2ccccc2/C1=C1/Nc2ccccc2C1=O [Indirubin]
CC50 (in vitro [1]): > 100 µM
CC50 (in vitro [2]; CC50 Vero E6): > 100 µM
